Measured values: patent US20090306093A1, “METHOD FOR TREATING PATIENT HAVING BENIGN PROSTATE HYPERPLASIA” (KAOHSIUNG MEDICAL UNIVERSITY, priority 2008, published 2009)

Assays:
PKG = experiment: Western blot of PKG expression in rat prostate
Description: Prostate strips were incubated with KMUP-1 (10-100 μM), sildenafil (100 μM) and zaprinast (100 μM) in 10 mL Tyrode solution aerated with 95% O2 and 5% CO2 for 1 hour. To examine the possible mechanisms of KMUP-1 action, the rat prostate were pretreated with ODQ (10 μM), SQ22536 (10 μM) and RP-8pCPT-cGMPs (10 μM) for 30 minutes prior to the addition of KMUP-1 (100 μM).
In order to examine the expression of Rho kinase in prostate, the prostate strips were pre-incubated with phenylephrine (10 μM) for 30 minutes. After a pre-treatment of phenylephrine, KMUP-1 (10-100 μM) and Y-27632 (10 μM) were further incubated for 30 minutes. After the incubation time, the prostate were extracted with protein extraction reagent (Pierce Biotechnology, Inc., Rockford, Ill., USA.). The PZ-HPV-7 cells were incubated with and without KMUP-1 (0.1-10 μM) at 30 minutes, 8 and 24 hours. They were then washed rapidly with ice-cold PBS, incubated with protein extraction reagent, and scraped from the plates. The prostate tissues and cells were sonicated three times for 10 second each time and centrifuged at 13,000 rpm at 4° C. for 30 minutes. The protein concentrations of supernatants were determined, using bovine serum albumin as the standard. Tissue and cell extract protein were then boiled at a ratio of 4:1 with sample buffer (100 mM Tris, pH 6.8, 20% glycerol, 4% SDS, and 0.2% bromphenol blue). 40-60 μg protein was used in this experiment. Electrophoresis was performed using 10 or 12% SDS-polyacrylamide gel electrophoresis and then transferred to nitrocellulose membranes (Millipore Corporation, Billerica, Mass.). The membrane was blocked with Tris-buffered saline (20 mM Tris and 137 mM NaCl, pH 7.6) containing 0.1% Tween 20 (TTBS) and 5% non-fat milk at room temperature for 1 hour, washed with TTBS, and then incubated overnight at 4° C. in the appropriate primary antibody of PKG (Santa Cruz, 1:200), sGCa1 (Santa Cruz, 1:200), PKA (Abcam, 1:1000), ROCK2 (Upstate, 1:1000), and PDE5A (BD Biosciences, 1:1000), p21 (Upstate, 1:1000). The membranes were washed in TTBS before being incubated with horseradish peroxidase-conjugated antibody against mouse, goat, or rabbit IgG (Santa Cruz, 1:1000) for 1 hour. The membrane was then washed in TTBS and developed with the enhanced chemiluminescence (ECL) for the detection of the specific antigen. The intensity of the bands was measured by densitometry.

a1D-adrenoceptor = molecular target: T1, a1D-adrenoceptor (Rattus norvegicus, UniProt P23944); experiment: [3H]-prazosin competition binding, rat aorta membranes; conditions: read-out: Receptor Affinity (pKi) a1D (converted)
T1 construct: The submaxillary glands, spleen, and aorta of rats were separately homogenized; from tissue; host or cells: Wistar rat aorta membranes
T1 sequence (P23944 1-561): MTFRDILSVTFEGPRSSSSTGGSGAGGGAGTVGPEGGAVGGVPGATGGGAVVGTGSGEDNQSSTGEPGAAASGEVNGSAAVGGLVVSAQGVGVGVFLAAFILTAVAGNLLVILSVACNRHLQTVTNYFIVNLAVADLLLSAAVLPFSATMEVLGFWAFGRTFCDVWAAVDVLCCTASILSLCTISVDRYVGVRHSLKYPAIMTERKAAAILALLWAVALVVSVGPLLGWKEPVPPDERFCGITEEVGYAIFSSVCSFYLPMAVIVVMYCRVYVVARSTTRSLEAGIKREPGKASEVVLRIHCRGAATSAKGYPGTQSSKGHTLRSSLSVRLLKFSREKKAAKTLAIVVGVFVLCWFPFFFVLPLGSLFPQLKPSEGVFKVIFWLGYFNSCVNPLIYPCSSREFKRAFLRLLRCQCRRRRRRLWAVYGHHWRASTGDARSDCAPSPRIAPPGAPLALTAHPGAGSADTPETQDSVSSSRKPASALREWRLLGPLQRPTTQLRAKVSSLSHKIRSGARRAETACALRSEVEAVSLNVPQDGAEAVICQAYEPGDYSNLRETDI
Description: Wistar rats were obtained from National Laboratory Animal Breeding and Research Center (Taipei, Taiwan) and housed under a constant temperature and controlled illumination. The submaxillary glands, spleen, and aorta of rats were separately homogenized for 30 seconds with a Kinematica polytron in 20 volumes of ice-cold TE buffer (10 mM Tris HCl, 1 mM EDTA, 0.1 mM ascorbic acid, pH 7.4). The homogenate was filtered under pressure through muslin and the filtrate was centrifuged at 1,000 g for 10 minutes. The supernatant was centrifuged again at 10,000 g for 12 minutes at 4° C. The second supernatant was centrifuged at 30,000 g for 15 minutes at 4° C., and the final pellet was resuspended in the assay buffer (75 mM Tris HCl, 25 mM MgCl2, pH 7.4). Protein content was determined by Bradford's method.
[^3H]-prazosin, KMUP-1 and membranes (200-300 μg) were incubated for 60 minutes at 25° C. with or without the addition of nonspecific binding agents, in a 75 mM Tris HCl buffer with 25 mM MgCl2, making a final volume of 500 μL. In this experiment, non-specific binding was defined by use of 10 μM phentolamine. […] Membrane-bound radioligand trapped in the filters was counted in a Beckman LS6500 scintillation system (Fullerton, Calif.) with an efficiency of 45%. In each experiment, nonspecifically bound radioligand agents were measured by incubating membrane protein. […]

Cn1c(=O)c2c(ncn2CCN2CCN(c3ccccc3Cl)CC2)n(C)c1=O [KMUP-1, 7-[2-[4-(2-Chlorobenzene)piperazinyl]ethyl]-1,3-dimethyl xanthine]
expression of PKG (PKG; KMUP-1 100 μM after pretreatment of RP-8-pCPT-cGMPs 10 μM for 30 minutes): significantly reduce | expression of PKG (PKG; KMUP-1 10, 100 μM, sildenafil, zaprinast 100 μM): significantly induce | Ki (a1D-adrenoceptor): 0.0204 µM
